The target in this assay is T1, SaCas9 (Staphylococcus aureus, UniProt J7RUA5).
T1 sequence (J7RUA5 1-1053): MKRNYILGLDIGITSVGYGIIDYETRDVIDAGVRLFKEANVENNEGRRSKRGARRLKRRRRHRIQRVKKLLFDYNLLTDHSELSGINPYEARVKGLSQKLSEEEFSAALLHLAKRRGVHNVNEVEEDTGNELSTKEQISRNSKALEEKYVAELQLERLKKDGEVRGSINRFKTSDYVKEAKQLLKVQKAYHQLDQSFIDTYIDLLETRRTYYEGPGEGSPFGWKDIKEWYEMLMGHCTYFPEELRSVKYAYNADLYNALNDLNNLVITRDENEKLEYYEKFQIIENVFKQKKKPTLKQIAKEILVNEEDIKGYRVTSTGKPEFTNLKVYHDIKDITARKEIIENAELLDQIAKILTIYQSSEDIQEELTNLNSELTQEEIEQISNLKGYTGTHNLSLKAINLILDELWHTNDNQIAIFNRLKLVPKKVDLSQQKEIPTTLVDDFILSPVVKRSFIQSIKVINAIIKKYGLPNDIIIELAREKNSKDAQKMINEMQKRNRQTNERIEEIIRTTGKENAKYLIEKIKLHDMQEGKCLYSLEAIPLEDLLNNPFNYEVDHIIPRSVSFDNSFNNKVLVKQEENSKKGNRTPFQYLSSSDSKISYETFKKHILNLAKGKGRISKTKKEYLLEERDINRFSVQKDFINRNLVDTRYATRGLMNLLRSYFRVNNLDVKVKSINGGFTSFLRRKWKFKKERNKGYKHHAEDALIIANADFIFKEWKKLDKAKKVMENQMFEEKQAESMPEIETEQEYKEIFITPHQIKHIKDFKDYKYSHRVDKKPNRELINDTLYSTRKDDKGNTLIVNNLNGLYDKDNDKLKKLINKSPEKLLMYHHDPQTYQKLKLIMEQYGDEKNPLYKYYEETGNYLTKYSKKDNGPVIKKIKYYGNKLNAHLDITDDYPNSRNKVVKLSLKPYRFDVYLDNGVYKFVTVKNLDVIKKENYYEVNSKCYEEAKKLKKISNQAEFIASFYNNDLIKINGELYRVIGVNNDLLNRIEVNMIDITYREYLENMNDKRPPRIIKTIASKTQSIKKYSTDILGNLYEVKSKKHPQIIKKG
Description: Strand displacement assay, SaCas9 primary screen. It counts as biochemical. To be noted: for Auto Zscore Rep 1 / Auto Zscore Rep 2 / Normalized Zscore Rep 1 / Normalized Zscore Rep 2: SaCas9 primary screen; for Auto Zscore Rep 1 / Normalized Zscore Rep 1: replicate 1; for Auto Zscore Rep 2 / Normalized Zscore Rep 2: replicate 2; for Normalized Zscore Rep 1 / Normalized Zscore Rep 2: weaker potential hits; for 3 sigma Hit: flag 1 = hit at 3 sigma; for 5 sigma Hit: flag 1 = hit at 5 sigma. The method, then: An overview of the screening for SaCas9 inhibitors is depicted in FIG. 14. A total of 43,168 Compounds were screened from the ICCB Libraries. Libraries screened for the initial compounds include ChemDiv 7 (34,848 cpds), Enamine 1 (5,280 cpds), ChemDiv1 (1,760 cpds), NIH Clinical Collection (450 cpds), Biomol 4—FDA Approved Library (640 cpds). A hit is determined from the Zscore, with 3-5σ being a weak hit, >5σ being a strong hit. The results of the hits include 193 Weak Hits and 249 Strong Hits. The NIH Clinical Collection 1-2014 was screened for 450 of 450 compounds, with 7 hits—1.5%. The Biomol 4—FDA Approved Library was screened for 640 of 640 compounds, with 8 hits—1.2%. […] Enamine 1 was screened for 5,280 of 6,004 compounds, with 44 hits—0.83%. Libraries are commercially available, with reference numbers utilized for compounds identifying the compound structures used. […]
Generalization of CAA to other Cas nucleases. Applicants sought to generalize CAA to other CRISPR-associated nucleases, including from Staphylococcus aureus (SaCas9). Given the similarities between SaCas9 and SpCas9 modes of DNA-substrate binding and protein folding,^26, 27 Applicants hypothesized that SaCas9-induced strand displacement could be similarly measured. Indeed, fluorescence quenching correlated with substrate cleavage in the CAA assay with active SaCas9:gRNA and an ACGGGT PAM sequence, which was validated with gel electrophoresis (FIG. 62F,G and FIG. 69F).
First, Applicants optimized various components and conditions of the strand displacement assay for Cas enzyme activity and generality with different Cas such as SpCas9 (FIG. 62B) or SaCas9 (FIG. 69F) or FnCas12a (FIG. 70A,B). Typically, SpCas9: gRNA (1:1.2 ratio) RNP was pre-formed at 1 μM in Cas9 assay buffer (20 mM Tris-HCl, pH=7.5, 100 mM KCl, 5 mM MgCl2) for 5 min at 4° C. before diluting to 10 nM in Cas9 assay buffer (2× final concentration). 25 μL of the Cas9 2× stock was manually dispensed to a black 384-well plate (Corning 3575) using electronic pipette. Apo SpCas9 (without guide RNA) was used at the same concentration as a control for no activity (mock inhibition). Following this, pre-annealed Alexa-Fluor 647 labeled substrate and quencher were also diluted to 1 nM and 5 nM in Cas9 assay buffer, respectively (2× stock solution). Next, 25 μL of the substrate/quencher solution was added manually to each well of the Cas9-containing 384-well plates using an electronic pipette and was incubated at 37° C. for 2.5 h. Fluorescent signals were read with the microplate reader set to read Alexa-Fluor 647 fluorescence. Assay was performed similarly with SaCas9 and FnCas12a using the respective enzyme, gRNA, substrate, and quencher oligos. Applicants similarly divulged the effect of PAM sequences of dsDNA on its assay specificity using TGG, TGC, AAC PAM containing substrates for SpCas9 (FIG. 62C), and ACGGGT, ACGGTT, TGCCCA PAM substrate for SaCas9 (FIG. 62F) and TTTC, TTGC, AAAG PAM substrates for FnCpf1 (FIG. 63B-C). Applicants also optimized the effective concentration of DS-AF647 and SS-AF647 fluorophores (FIG. 64A), DS-substrate to SpCas9 RNP ratio (FIG. 64B) and substrate to quencher ratio (FIG. 64C) on assay performance. Similarly, Applicants performed a time course experiment to establish the time required for maximum completion of the reaction at various substrate to SpCas9 RNP ratios (FIG. 64D).

Here are results for 17 compounds from patent publication US20240115557A1, “INHIBITORS OF RNA-GUIDED NUCLEASES AND USES THEREOF” (The Brigham and Women's Hospital, Inc., priority 2022, published 2024).

Structures are written as SMILES.

As to `c1ccc(-c2nnc3sc(-c4ccncc4)nn23)nc1` [Cpd D727-0542], the “Auto Zscore Rep 1” value is −0.3775, the “Auto Zscore Rep 2” value is 1.249, the “Normalized Zscore Rep 1” value is 0.1921 and the “Normalized Zscore Rep 2” value was found to be 0.2295. Besides, the “3 sigma Hit” value turned out to be 1 and the “5 sigma Hit” value came out at 1.
Take `Cc1cc(-c2nn3c(C(C)C)nnc3s2)no1` [Cpd D727-0612]: the “Auto Zscore Rep 1” value is −0.2589, the “Auto Zscore Rep 2” value is −0.2694, the “Normalized Zscore Rep 1” value is reported as 0.1368 and the “Normalized Zscore Rep 2” value came to 0.1972. Further, the “3 sigma Hit” value is listed as 1.
As for `Cc1cc(-c2nn3c(COc4ccccc4)nnc3s2)no1` [Cpd D727-0624], the “Auto Zscore Rep 1” value turned out to be 1.24, the “Auto Zscore Rep 2” value was found to be 0.8474, the “Normalized Zscore Rep 1” value amounted to 0.2151 and the “Normalized Zscore Rep 2” value turned out to be 0.2232. Besides, the “3 sigma Hit” value is listed as 1 and the “5 sigma Hit” value is recorded as 1.
For `Cc1cc(-c2nnc3sc(COc4ccccc4Cl)nn23)[nH]n1` [Cpd D727-0910], the “Auto Zscore Rep 1” value was determined as 0.8719, the “Auto Zscore Rep 2” value is reported as 0.05327, the “Normalized Zscore Rep 1” value stood at 0.2028 and the “Normalized Zscore Rep 2” value amounted to 0.2126. Further, the “3 sigma Hit” value is listed as 1.
Turning to `CC1(C)CC(=O)C2=C(C1)Nc1onc(C(C)(C)C)c1C2c1ccc(O)c(O)c1` (centres unmarked) [Cpd D733-0293], the “Auto Zscore Rep 1” value is −1.043, the “Auto Zscore Rep 2” value is recorded as 2.015, the “Normalized Zscore Rep 1” value is recorded as 0.4191 and the “Normalized Zscore Rep 2” value is reported as 0.3634. In addition, the “3 sigma Hit” value came out at 1 and the “5 sigma Hit” value was 1.
For the compound `CN1C(C(=O)Nc2sc3c(c2C(N)=O)CCCC3)=CC(c2ccc(F)cc2)=NS1(=O)=O` [Cpd E135-0568], the “Auto Zscore Rep 1” value was determined as 0.3653, the “Auto Zscore Rep 2” value is given as −0.5622, the “Normalized Zscore Rep 1” value amounted to 0.1731 and the “Normalized Zscore Rep 2” value was found to be 0.1458. Further, the “3 sigma Hit” value worked out at 1.
The matching figures for `CC1CCC(NC(=O)C2(C)Cn3c(cc4occc43)C(=O)N2CCN(C)C2CCCCC2)CC1` (centres unmarked) [Cpd E218-0425]: −0.4666, 0.1007, 0.2235, 0.1821 and 1.
Taken in the same sequence, the figures for `CC1(C(=O)NC2CCCCC2)Cn2c(cc3ccccc32)C(=O)N1c1ccc2c(c1)OCCO2` (centres unmarked) [Cpd E234-0056] were 1.418, 1.057, 0.2592, 0.1597 and 1.
Turning to `Cc1sc2c(c1C)CSC(C(=O)Nc1c(C)n(C)n(-c3ccccc3)c1=O)=C2` [Cpd E722-1395], the “Auto Zscore Rep 1” value is recorded as −0.03529, the “Auto Zscore Rep 2” value was 0.492, the “Normalized Zscore Rep 1” value came to 0.2255 and the “Normalized Zscore Rep 2” value is given as 0.1818. Also, the “3 sigma Hit” value is listed as 1.
As for `Cc1c(NC(=O)C2=Cc3sc4c(c3CS2)CCCC4)c(=O)n(-c2ccccc2)n1C` [Cpd E722-2603], the “Auto Zscore Rep 1” value is −0.3069, the “Auto Zscore Rep 2” value stood at 2.714, the “Normalized Zscore Rep 1” value was determined as 0.2035 and the “Normalized Zscore Rep 2” value came out at 0.262. In addition, the “3 sigma Hit” value is on record as 1.
For the compound `CN(C)S(=O)(=O)Nc1ccc(N2CCN(CC(=O)N3CCCC3)CC2)c(C(=O)O)c1` [Cpd F290-0671], the “Auto Zscore Rep 1” value is reported as −0.453, the “Auto Zscore Rep 2” value is −0.8512, the “Normalized Zscore Rep 1” value is 0.1922 and the “Normalized Zscore Rep 2” value turned out to be 0.2017. Besides, the “3 sigma Hit” value is listed as 1.
The matching figures for `CCN(Cc1ccccc1)c1ncc(NS(=O)(=O)c2ccc(F)cc2)cc1C(=O)O` [Cpd F293-0001]: 0.4484, 1.331, 0.18, 0.1781 and 1.
Taken in the same sequence, the figures for `CCN(Cc1ccccc1)c1ncc(NS(=O)(=O)c2c(C)cc(C)cc2C)cc1C(=O)O` [Cpd F293-0002] were 0.3791, −0.09351, 0.2023, 0.2291 and 1.
In the case of `CCN(Cc1ccccc1)c1ncc(NS(=O)(=O)c2ccccc2)cc1C(=O)O` [Cpd F293-0004], the “Auto Zscore Rep 1” value is on record as 1.668, the “Auto Zscore Rep 2” value turned out to be 0.9183, the “Normalized Zscore Rep 1” value was determined as 0.2707 and the “Normalized Zscore Rep 2” value was 0.1884. In addition, the “3 sigma Hit” value stood at 1 and the “5 sigma Hit” value was determined as 1.
On to `CCN(Cc1ccccc1)c1ncc(NS(=O)(=O)CC)cc1C(=O)O` [Cpd F293-0006], for which the “Auto Zscore Rep 1” value was 1.342, the “Auto Zscore Rep 2” value turned out to be 0.9231, the “Normalized Zscore Rep 1” value came out at 0.3022 and the “Normalized Zscore Rep 2” value was 0.2957. Moreover, the “3 sigma Hit” value amounted to 1 and the “5 sigma Hit” value came to 1.
As to `CCN(Cc1ccccc1)c1ncc(NS(=O)(=O)c2cc(C)ccc2C)cc1C(=O)O` [Cpd F293-0010], the “Auto Zscore Rep 1” value was 2.149, the “Auto Zscore Rep 2” value is 2.534, the “Normalized Zscore Rep 1” value came to 0.2507 and the “Normalized Zscore Rep 2” value was determined as 0.2028. In addition, the “3 sigma Hit” value turned out to be 1 and the “5 sigma Hit” value stood at 1.
Turning to `Cc1cc(C)c(S(=O)(=O)Nc2cnc(N3CCCC3)c(C(=O)O)c2)c(C)c1` [Cpd F293-0426], the “Auto Zscore Rep 1” value is 0.8114, the “Auto Zscore Rep 2” value stood at 1.196, the “Normalized Zscore Rep 1” value is on record as 0.2469 and the “Normalized Zscore Rep 2” value is listed as 0.2531. Moreover, the “3 sigma Hit” value is recorded as 1 and the “5 sigma Hit” value is 1.
